We go through 17 molecules from US10696671B2, “Imidazo[1,2-A]pyridine derivatives, methods for preparing the same and use thereof” (Jeil Pharmaceutical Co., Ltd., priority 2016, dated 2020).

The target in assay [1] is T1, proton pump (H+/K+-ATPase), porcine gastric vesicles (Sus scrofa, UniProt P19156).
T1 construct: reaction buffer (50 mmol/L Tris-Hepes buffer, pH 6.4) containing porcine gastric vesicles; from tissue; host or cells: porcine gastric mucosa (gastric vesicles prepared by centrifugation)
T1 sequence (P19156 2-1034 limits assumed): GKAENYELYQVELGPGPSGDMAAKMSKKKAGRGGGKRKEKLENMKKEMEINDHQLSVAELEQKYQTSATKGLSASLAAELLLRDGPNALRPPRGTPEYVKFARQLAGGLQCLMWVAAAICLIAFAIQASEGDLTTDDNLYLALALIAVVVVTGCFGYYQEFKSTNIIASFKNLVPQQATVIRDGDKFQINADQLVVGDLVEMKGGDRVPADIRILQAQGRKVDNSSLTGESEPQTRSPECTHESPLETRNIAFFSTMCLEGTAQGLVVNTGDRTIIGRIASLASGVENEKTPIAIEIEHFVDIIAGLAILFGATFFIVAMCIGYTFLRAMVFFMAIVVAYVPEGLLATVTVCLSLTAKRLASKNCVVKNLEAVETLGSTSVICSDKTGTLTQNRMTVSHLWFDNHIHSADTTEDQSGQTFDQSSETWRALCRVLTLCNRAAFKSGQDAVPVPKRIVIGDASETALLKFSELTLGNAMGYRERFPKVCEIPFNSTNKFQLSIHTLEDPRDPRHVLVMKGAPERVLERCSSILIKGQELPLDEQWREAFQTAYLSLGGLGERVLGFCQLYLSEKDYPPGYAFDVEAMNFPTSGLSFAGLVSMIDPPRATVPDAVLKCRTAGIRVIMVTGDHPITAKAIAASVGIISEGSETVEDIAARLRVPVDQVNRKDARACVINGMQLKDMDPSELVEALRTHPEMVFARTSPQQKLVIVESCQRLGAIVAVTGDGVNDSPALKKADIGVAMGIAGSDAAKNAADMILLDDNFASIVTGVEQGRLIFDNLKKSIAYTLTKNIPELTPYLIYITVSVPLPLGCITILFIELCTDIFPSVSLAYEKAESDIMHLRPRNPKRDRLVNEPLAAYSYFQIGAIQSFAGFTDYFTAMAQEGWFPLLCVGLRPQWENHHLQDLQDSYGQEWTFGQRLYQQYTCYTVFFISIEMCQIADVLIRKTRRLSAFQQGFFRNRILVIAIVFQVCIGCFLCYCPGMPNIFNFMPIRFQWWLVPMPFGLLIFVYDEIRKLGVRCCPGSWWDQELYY
T1 sequence (P18434 whole entry partner): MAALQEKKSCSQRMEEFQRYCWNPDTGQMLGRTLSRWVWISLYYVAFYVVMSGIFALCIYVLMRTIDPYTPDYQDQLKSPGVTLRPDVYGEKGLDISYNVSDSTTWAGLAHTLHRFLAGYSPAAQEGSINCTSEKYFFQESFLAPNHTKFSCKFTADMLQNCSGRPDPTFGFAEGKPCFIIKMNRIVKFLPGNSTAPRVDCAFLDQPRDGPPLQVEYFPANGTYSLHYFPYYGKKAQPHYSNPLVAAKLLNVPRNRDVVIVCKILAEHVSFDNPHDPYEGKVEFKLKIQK
Description: Inhibitory effects against proton pump (H+/K+-ATPase) activity, malachite green phosphate assay. In kind it is biochemical. The settings on record: pH 6.4, 37° C., K+-dependent activity. Here is the method: Test Example 1: Preparation of Gastric Vesicles
Gastric vesicles used in the experiment were prepared by separation from porcine gastric mucosa according to a centrifugation method [Saccomani G, et al., A Nonelectrogenic H^+ Pump in Plasma Membranes of Hog Stomach, J Biol Chem., 1976, 251 (23), 7690-8]. Next, the protein content of the gastric vesicles was quantified using a bicinchoninic acid kit [Smith P K, et al., Measurement of protein using bicinchoninic acid, Anal Biochem., 1985, 150 (1), 76-85)].
Test Example 2: Measurement of Inhibitory Effects Against Proton Pump (H^+/K^+-ATPase) Activity
The inhibitory effects of the compounds against proton pump activity were calculated based on the pump activity determined in the presence of K^+ ions excluding the pump activity determined in the absence of K^+ ions. The inhibitory effects against proton pump activity were measured in 96-well plates, and all reactions were performed with a reaction volume of […] at 37° C. Specifically, 10 μm of valinomycin and each concentration of each compound were pre-incubated in a reaction buffer (50 mmol/L Tris-Hepes buffer, pH 6.4) containing porcine gastric vesicles for 15 minutes. For negative and positive control groups, 1% DMSO was added to buffer, and for test groups, 1% DMSO and a dilution of each concentration of each compound were added. Next, 0.2 mmol/L of adenosine triphosphate (ATP) was added to the reaction buffer and incubated at 37° C. for 40 minutes. After completion of the incubation, a malachite green solution was added to the reaction buffer and incubated for 30 minutes, and the amount of inorganic phosphate in the reaction buffer was measured by colorimetry using a malachite green phosphate assay Kit (Bioassay Systems). For colorimetry, the OD (optical density) at 620 nm was measured using a microplate reader [Synergy H4, hybrid multimode microplate reader, BioTek]. The percent inhibition of proton pump (H^+/K^+-ATPase) was determined based on the OD value of the control group and the OD values of various concentrations of the test compounds, and the IC50 of each test compound was calculated using the Logistic 4-parameter function of Sigmaplot 8.0 program.

Assay [2] deals with esophageal injury in reflux esophagitis models. Kind of assay: Inhibitory effects against esophageal injury in reflux esophagitis models. To be noted: Rattus norvegicus; percent inhibition of esophageal injury area vs control; rats, 2 mg/kg oral 1 hour before ligation, measured 6 hours after ligation; read-out: GERD (rat/mpk). In kind it is in vivo, Sprague Dawley (SD) rats. Here is the method:
Test Example 3: Inhibitory Effects against Esophageal Injury in Reflux Esophagitis Models The inhibitory effects of the compounds of the present disclosure against esophageal injury in reflux esophagitis models were evaluated according to the method of Nakamura [Nakamura K, et al., Effects of sodium polyacrylate (PANa) on acute esophagitis by gastric juice in rats, Jpn J Pharmacology, 1982, 32, 445-56]. Male Sprague Dawley (SD) rats (weighing 180-210 g) were divided into X groups (n=6) and fasted without water for 24 hours. Then, the control group was administered orally with only 10% DMSO, 10% Cremophor EL and 80% water, and the other groups were administered orally with 2 mg/kg/2 ml of each test compound together with 10% DMSO, 10% Cremophor EL and 80% water. At 1 hour after administration of the excipients and each compound, the abdominal cavity of each rate was incised under isoflurane anesthesia, and the pylorus was ligated, and the boundary between the anterior portion and the body was also ligated. At 6 hours after ligation, the test animals were euthanized, and the esophagus ranging from the thyroid to the cardiac portion was carefully extracted. The extracted esophagus was incised in a longitudinal direction and spread so as to expose the mucosa and was then fixed, after which the area of esophageal injury was measured. Percent (%) inhibitory activity of test compounds={(total esophageal injury area of control group−esophageal injury area of group treated with test compound)/total esophageal injury area of control group}×100.

Assay [3] concerns histamine-stimulated gastric acid secretion. Description: Inhibitory effects against histamine-stimulated gastric acid secretion in pylorus-ligated rats (Shay's rat models). The settings on record: percent inhibition of total acid output vs control, 2 mg/kg oral 1 hour before pylorus ligation, histamine 30 mg/kg s.c., 3 hours after ligation. In kind it is in vivo, Sprague-Dawley (SD) rats. Here is the method: Test Example 4: Inhibitory Effects against Histamine-Stimulated Gastric Acid Secretion in Pylorus-Ligated Rats The inhibitory effects of the compounds of the present disclosure against histamine-stimulated gastric acid secretion were evaluated using Shay's rat models [Shay H, et al. A simple method for the uniform production of gastric ulceration in the rat, Gastroenterology, 1945, 5, 43-61]. Male Sprague-Dawley (SD) rats (weighing 180-210 g) were divided into X groups (n=7) and fasted with only water access for 24 hours. At 1 hour before pylorus ligation, the control group was administered orally with only 10% DMSO, 10% Cremophor EL and 80% water, and the other groups were administered orally with 2 mg/kg/2 ml of each compound together with 10% DMSO, 10% Cremophor EL and 80% water. The abdominal cavity of each rate was incised under isoflurane anesthesia, and the pylorus was ligated. Immediately after ligation, histamine 2HCl was administered subcutaneously to each rat at a dose of 30 mg/kg/10 ml. At 3 hours after ligation, the test animals were euthanized, and the gastric content was extracted. The extracted gastric content was centrifuged at 3,000×g for 10 minutes, and the supernatant was collected to obtain gastric juice. Next, the acidity of the gastric juice was determined based on the volume of (ueq/ml) of 0.1 N—NaOH required for automatic titration of the gastric juice to pH 7.0, and the acidity of the gastric juice was multiplied by the amount of the gastric juice to determine total acid output. Percent (%) inhibitory activity of test compounds={(total acid output in control group−total acid output in group treated with test compound)/total acid output in control group}×100.

In the case of `Cc1cccc(C)c1CNc1cc(C(=O)N2CC(O)C2)cn2c(C)c(C)nc12` [Example 1, {8-[(2,6-Dimethylbenzyl)amino]-2,3-dimethylimidazo[1,2-α]pyridin-6-yl}(3-hydroxyazetidin-1-yl)methanone], the IC50 in assay [1] turned out to be 20 nM. In addition, in assay [2], the inhibition in vivo at 2 mg/kg was 84%. Further, the “acid output (rat/2 mpk)” value in assay [3] is 71%.

On to `Cc1cccc(C)c1CNc1cc(C(=O)N2CCC2)cn2c(C)c(C)nc12` [Example 6, azetidin-1-yl{8-[(2,6-dimethylbenzyl)amino]-2,3-dimethylimidazo[1,2-α]pyridin-6-yl}methanone], for which the IC50 in assay [1] turned out to be 17 nM. Further, the inhibition in vivo at 2 mg/kg in assay [2] turned out to be 100%. For the same molecule, the “acid output (rat/2 mpk)” value in assay [3] is 94%.

On to `Cc1cccc(C)c1CNc1cc(C(=O)N2CC(F)C2)cn2c(C)c(C)nc12` [Example 7, {8-[(2,6-dimethylbenzyl)amino]-2,3-dimethylimidazo[1,2-a]pyridin-6-yl}(3-fluoroazetidin-1-yl)methanone], for which the half-maximal inhibitory concentration (IC50) in assay [1] is 55 nM. Besides, in assay [2], the inhibition in vivo at 2 mg/kg was found to be 100%. In addition, the “acid output (rat/2 mpk)” value in assay [3] came to 91%.

For `Cc1cccc(C)c1CNc1cc(C(=O)N2CC(C)C2)cn2c(C)c(C)nc12` [Example 8, {8-[(2,6-dimethylbenzyl)amino]-2,3-dimethylimidazo[1,2-α]pyridin-6-yl}(3-methylazetidin-1-yl)methanone], in assay [1], the concentration for half-maximal inhibition (IC50) was determined as 96 nM. The inhibition in vivo at 2 mg/kg in assay [2] came out at 95.4%.

Take `Cc1cccc(C)c1CNc1cc(C(=O)N2CC(C)(O)C2)cn2c(C)c(C)nc12` [Example 9, {8-[(2,6-dimethylbenzyl)amino]-2,3-dimethylimidazo[1,2-α]pyridin-6-yl}(3-hydroxy-3-methylazetidin-1-yl)methanone]: the IC50 in assay [1] is 69 nM. Further, the inhibition in vivo at 2 mg/kg in assay [2] was found to be 77.2%.

For `Cc1cccc(C)c1CNc1cc(C(=O)N2CC(CO)C2)cn2c(C)c(C)nc12` [Example 11, {8-[(2,6-dimethylbenzyl)amino]-2,3-dimethylimidazo[1,2-α]pyridin-6-yl}[3-(hydroxymethyl)azetidin-1-yl]methanone], in assay [1], the IC50 worked out at 39 nM. The inhibition in vivo at 2 mg/kg in assay [2] worked out at 97.6%. In addition, in assay [3], the “acid output (rat/2 mpk)” value worked out at 78%.

As for `Cc1cc(F)ccc1CNc1cc(C(=O)N2CC(CO)C2)cn2c(C)c(C)nc12` [Example 33, {8-[(4-fluoro-2-methylbenzyl)amino]-2,3-dimethylimidazo[1,2-α]pyridin-6-yl}(3-(hydroxymethyl)azetidin-1-yl)methanone], in assay [1], the IC50 came to 143 nM. In addition, the inhibition in vivo at 2 mg/kg in assay [2] is 92.7%.

On to `Cc1cc(F)cc(C)c1CNc1cc(C(=O)N2CC(O)C2)cn2c(C)c(C)nc12` [Example 34, {8-[(4-fluoro-2,6-dimethylbenzyl)amino]-2,3-dimethylimidazo[1,2-α]pyridin-6-yl}(3-hydroxyazetidin-1-yl)methanone], for which, in assay [1], the IC50 stood at 28 nM. The inhibition in vivo at 2 mg/kg in assay [2] is 91.4%.

In the case of `Cc1cc(F)cc(C)c1CNc1cc(C(=O)N2CC(F)C2)cn2c(C)c(C)nc12` [Example 36, {8-[(4-fluoro-2,6-dimethylbenzyl)amino]-2,3-dimethylimidazo[1,2-α]pyridin-6-yl}(3-fluoroazetidin-1-yl)methanone], the IC50 in assay [1] was found to be 29 nM. Also, the inhibition in vivo at 2 mg/kg in assay [2] is 98.2%.

For the molecule `Cc1cc(F)cc(C)c1CNc1cc(C(=O)N2CC(CO)C2)cn2c(C)c(C)nc12` [Example 39, {8-[(4-fluoro-2,6-dimethylbenzyl)amino]-2,3-dimethylimidazo[1,2-α]pyridin-6-yl}[3-(hydroxymethyl)azetidin-1-yl]methanone], the IC50 in assay [1] came to 24 nM. Moreover, the inhibition in vivo at 2 mg/kg in assay [2] is 98.4%.

Take `Cc1ccc(F)c(C)c1CNc1cc(C(=O)N2CCC2)cn2c(C)c(C)nc12` [Example 42, azetidin-1-yl{8-[(3-fluoro-2,6-dimethylbenzyl)amino]-2,3-dimethylimidazo[1,2-α]pyridin-6-yl}methanone]: in assay [1], the IC50 was determined as 85 nM.

In the case of `Cc1ccc(F)c(C)c1CNc1cc(C(=O)N2CC(F)C2)cn2c(C)c(C)nc12` [Example 43, {8-[(3-fluoro-2,6-dimethylbenzyl)amino]-2,3-dimethylimidazo[1,2-α]pyridin-6-yl}(3-fluoroazetidin-1-yl)methanone], the IC50 in assay [1] was 174 nM.

On to `Cc1ccc(F)c(C)c1CNc1cc(C(=O)N2CC(CO)C2)cn2c(C)c(C)nc12` [Example 44, {8-[(3-fluoro-2,6-dimethylbenzyl)amino]-2,3-dimethylimidazo[1,2-α]pyridin-6-yl}[3-(hydroxymethyl)azetidin-1-yl]methanone], for which, in assay [1], the IC50 turned out to be 61 nM.

With `Cc1ccc(Cl)c(C)c1CNc1cc(C(=O)N2CCC2)cn2c(C)c(C)nc12` [Example 45, azetidin-1-yl{8-[(3-chloro-2,6-dimethylbenzyl)amino]-2,3-dimethylimidazo[1,2-α]pyridin-6-yl}methanone], the IC50 in assay [1] turned out to be 81 nM.

Consider `Cc1ccc(Cl)c(C)c1CNc1cc(C(=O)N2CC(O)C2)cn2c(C)c(C)nc12` [Example 46], for which, in assay [1], the IC50 turned out to be 163 nM.

Take `Cc1ccc(Cl)c(C)c1CNc1cc(C(=O)N2CC(F)C2)cn2c(C)c(C)nc12` [Example 47, {8-[(3-chloro-2,6-dimethylbenzyl)amino]-2,3-dimethylimidazo[1,2-α]pyridin-6-yl}(3-fluoroazetidin-1-yl)methanone]: in assay [1], the IC50 stood at 624 nM.

For `Cc1ccc(Cl)c(C)c1CNc1cc(C(=O)N2CC(CO)C2)cn2c(C)c(C)nc12` [Example 48, {8-[(3-chloro-2,6-dimethylbenzyl)amino]-2,3-dimethylimidazo[1,2-α]pyridin-6-yl}[3-(hydroxymethyl)azetidin-1-yl]methanone], in assay [1], the IC50 came out at 102 nM.

By IC50 is commonly meant the concentration that inhibits the measured activity by half.
